Assay results from US8883801B2, “Substituted pyrazolo[1,5-a]pyrimidines as mTOR inhibitors” (Merck Sharp & Dohme Corp., priority 2010, dated 2014).

Experiments:
human mTOR enzyme = human mTOR enzyme (Homo sapiens, UniProt P42345); experiment: HTRF mTOR enzyme (kinase) assay; type: biochemical; conditions: rated class; 5 μM ATP, 0.2 μM GST-S6K; read-out: hMTOR IC50
Experimental: Methods: An HTRF mTOR enzyme assay was developed to assess the compounds' inhibitory activity. The mTOR assay buffer contained 10 mM Hepes (pH 7.4), 50 mM NaCl, […] BSA, 50 mM […], 10 mM MnCl2 and 0.5 mM DTT. […] 20 ng of human mTOR enzyme (<5% pure was preincubated with the compound for 10 minutes followed by the addition of 5 μM ATP and 0.2 μM GST-S6K (Zhang et al., Protein Expression and Purification 46, pp 414-420 (2006)). The reaction was incubated for one hour at 30° C. Anti phospho p70-S6K(Thr389) (˜1.7 ng/well, anti-phospho-p70S6K-cryptate (Pho-p70S6-Kin-K cat#64CUSKAY, from Cisbio)) and anti GST-XL665 (1:1 Ratio with the substrate GST-S6K, anti GST-XL665, cat#61GSTXLB) Cisbio) were added after the reaction was stopped. The plates were read (PHERAstar, BMG) at least 2 hours after adding the anti phospho p70-S6K and the anti GST-XL665.
IC50 DETERMINATIONS: Dose-response curves were plotted from the inhibition data generated, each in duplicate, from 8 point serial dilutions of inhibitory compounds. Concentration of compound was plotted against the HTRF em665/em590 ratio signal. To generate IC50 values, the dose-response curves were fitted to a standard sigmoidal curve and IC50 values were derived by nonlinear regression analysis.

[1] = tested on: mTORC2 activity: phosphorylated AKT Ser473 (pAKT S473) in PC3 cells; experiment: mTOR target engagement assay, immunofluorescent cell-based, mTORC2 readout; conditions: Homo sapiens, PC-3, 1.5 h, rated class, 90 min treatment
Experimental: The target engagement of mTOR kinase inhibitors was evaluated using an immunofluorescent cell-based assay. In this assay, inhibition of mTORC1 activity was measured by the reduction in the level of phosphorylated 4E-BP1Thr37/46 (p4E-BP1 Thr37/46), and inhibition of mTORC2 activity was measured by the reduction of phosphorylated AKTSer473 (pAKT S473).
PC3 cells (prostate tumor cell-line that contains a mutation in the tumor suppressor PTEN, that promotes the phosphorylation and activation of AKT and 4E-BP1) were used in the immunofluorescence assay. PC3 cells were seeded on 384 well plates (black clear bottom, Matrix #4332) overnight. PC3 cells were then treated with 40 μl of the serially diluted test compounds (in 5% fetal bovine serum, F12 medium containing 0.25% DMSO) for ninety minutes at 37° C. The test compound solution was removed, and the plates were washed gently two times with 25 μl phosphate buffered saline (PBS). The cells were fixed by adding 25 μl of Prefer reagent (from Anatech LTD, Cat#414, a glyoxal fixative for fixing proteins within a cell) for sixty minutes followed by three washes with PBS. 5% Goat serum in PBS/0.3% Triton was used to block non-specific binding (60 minutes).
The primary antibodies targeting pAKT S473 and p4E-BP1 Thr37/46 were diluted into PBS/0.3% Triton and incubated with the cells overnight at 4° C. The antibodies targeting pAKTS473 (Cat#4085, Cell signaling) and p4E-BP1 Thr37/46 (Cat#2855, Cell signaling) were used at a 1:100 dilution. Plates were washed three times with PBS/0.1% Tween 20 before adding the secondary antibody at a 1:200 dilution. (goat anti-rabbit containing a fluorescent label, Alexa Fluor 488, Cat#A11008, Invitrogen) in PBS/0.3% Triton for 60 minutes.
Finally, the plates were washed three times with PBS/0.1% Tween 20 and the fluorescent intensity was read using an Analyst HT from Molecular Devices. The fluorescent intensity values from the serially diluted compound treatment group were analyzed using the Xlfit 4 program ([…]) (Formula 205: Y=Bottom+(Top-Bottom)/(1+(IC50/X)^Hillslope) to generate the IC50 value. Where Top is the maximum signal without Compound (+DMSO only) and Bottom represents maximum inhibition. Y is the fluorescence at some compound concentration. The control used to determine the fluorescent intensities for 100% pAKT S473 or 100% phosphorylated p4E-BP1 Thr37/46 were measured from untreated wells that contained only DMSO, instead of test compound.

human mTOR enzyme, sequence (P42345 1360-2549 limits assumed): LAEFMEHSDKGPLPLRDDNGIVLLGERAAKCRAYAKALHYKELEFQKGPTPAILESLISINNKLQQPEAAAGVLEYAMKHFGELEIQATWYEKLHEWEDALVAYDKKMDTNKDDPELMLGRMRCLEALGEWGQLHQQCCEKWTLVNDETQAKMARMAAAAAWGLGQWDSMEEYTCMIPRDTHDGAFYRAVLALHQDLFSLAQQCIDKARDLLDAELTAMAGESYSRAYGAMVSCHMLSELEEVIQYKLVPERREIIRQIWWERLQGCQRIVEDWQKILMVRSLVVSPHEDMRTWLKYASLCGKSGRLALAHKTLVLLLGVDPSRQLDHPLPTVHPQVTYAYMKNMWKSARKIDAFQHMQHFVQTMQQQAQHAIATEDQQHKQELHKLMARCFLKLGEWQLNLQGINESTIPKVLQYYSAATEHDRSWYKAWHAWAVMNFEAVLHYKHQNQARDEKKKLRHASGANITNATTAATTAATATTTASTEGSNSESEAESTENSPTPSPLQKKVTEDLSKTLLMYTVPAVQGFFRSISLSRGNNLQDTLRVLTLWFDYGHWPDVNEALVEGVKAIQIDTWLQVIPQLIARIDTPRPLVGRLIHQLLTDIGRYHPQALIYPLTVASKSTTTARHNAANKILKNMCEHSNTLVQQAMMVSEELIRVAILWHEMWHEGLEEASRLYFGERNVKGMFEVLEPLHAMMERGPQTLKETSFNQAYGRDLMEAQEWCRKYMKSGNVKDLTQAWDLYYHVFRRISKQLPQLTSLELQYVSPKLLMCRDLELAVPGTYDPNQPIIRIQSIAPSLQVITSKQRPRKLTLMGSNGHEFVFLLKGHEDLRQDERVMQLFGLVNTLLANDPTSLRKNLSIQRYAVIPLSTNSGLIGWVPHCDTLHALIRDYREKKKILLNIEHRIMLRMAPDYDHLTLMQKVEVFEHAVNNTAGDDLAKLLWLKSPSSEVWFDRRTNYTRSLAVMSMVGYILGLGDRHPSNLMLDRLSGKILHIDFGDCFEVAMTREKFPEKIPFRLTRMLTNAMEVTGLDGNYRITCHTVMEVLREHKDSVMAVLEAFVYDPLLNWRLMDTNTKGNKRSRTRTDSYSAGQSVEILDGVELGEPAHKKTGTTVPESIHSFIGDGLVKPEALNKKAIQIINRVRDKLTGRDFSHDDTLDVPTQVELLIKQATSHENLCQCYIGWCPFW

SMILES	IC50 (human mTOR enzyme) [nM]	IC50 [1] [nM]
CC(=O)c1c(N)n2ncc(-c3ccc(-c4ccccc4)nc3)c2nc1[C@H]1CC[C@](F)(C(=O)O)CC1 [Compound 16, (1S,4S)-(6-acetyl-7-amino-3-(6-phenylpyridin-3-yl)pyrazolo[1,5-a]pyrimidin-5-yl)-1-fluorocyclohexane-carboxylic acid]	1 to 100	1000 to 2000
Nc1c(Br)c([C@H]2CC[C@](O)(CC(=O)O)CC2)nc2c(-c3ccc(-c4ccccc4)nc3)cnn12 [Compound 77, 2-((1S,4S)-4-(7-amino-6-bromo-3-(6-phenylpyridin-3-yl)pyrazolo[1,5-a]pyrimidin-5-yl)-1-hydroxycyclohexyl)-acetic acid]	1 to 100	1000 to 2000
COCCOC1(CO)CCC(c2nc3c(-c4cnn(-c5ccccc5)c4)cnn3c(N)c2C(C)=O)CC1 (centres unmarked) [Compound 87, 1-(7-amino-5-(4-(hydroxymethyl)-4-(2-methoxyethoxy)-cyclohexyl)-3-(1-phenyl-1H-pyrazol-4-yl)pyrazolo[1,5-a]pyrimidin-6-yl)ethanone]	1 to 100	100 to 1000
COCC1(O)CCC(c2nc3c(-c4cnc5ccc(F)cc5c4)cnn3c(N)c2Br)CC1 (centres unmarked) [Compound 165, 4-(7-amino-6-bromo-3-(6-fluoroquinolin-3-yl)pyrazolo[1,5-a]pyrimidin-5-yl)-1-(methoxymethyl)cyclohexanol]	1 to 100	1000 to 2000
COCCO[C@]1(C(=O)O)CC[C@H](c2nc3c(-c4cnn(-c5ccccc5)c4)cnn3c(N)c2C(C)=O)CC1 [Compound 54, (1S,4S)-4-(6-acetyl-7-amino-3-(1-phenyl-1H-pyrazol-4-yl)pyrazolo[1,5-a]pyrimidin-5-yl)-1-(2-methoxyethoxy)cyclohexanecarboxylic acid]	1 to 100	5000 to 15000
Nc1c(Br)c([C@H]2CC[C@@](F)(C(=O)O)CC2)nc2c(-c3ccc(-c4ccccc4)nc3)cnn12 [Compound 4, (1R,4R)-4-(7-amino-6-bromo-3-(6-phenylpyridin-3-yl)pyrazolo[1,5-a]pyrimidin-5-yl)-1-fluorocyclohexane-carboxylic acid]	1 to 100	100 to 1000
Nc1c(Br)c([C@H]2CC[C@@](OCCN3CCOCC3)(C(=O)O)CC2)nc2c(-c3ccc(-c4ccccc4)nc3)cnn12 [Compound 65, (1R,4R)-4-(7-amino-6-bromo-3-(6-phenylpyridin-3-yl)pyrazolo[1,5-a]pyrimidin-5-yl)-1-(2-morpholinoethoxy) cyclohexanecarboxylic acid]	1 to 100	1000 to 2000
COCCOC[C@]1(C(=O)O)CC[C@H](c2nc3c(-c4cnn(-c5ccccc5)c4)cnn3c(N)c2Br)CC1 [Compound 13, (1R,4R)-4-(7-amino-6-bromo-3-(1-phenyl-1H-pyrazol-4-yl)pyrazolo[1,5-a]pyrimidin-5-yl)-1-((2-methoxyethoxy)methyl)cyclohexane-carboxylic acid]	1 to 100	5000 to 15000
CC(=O)c1c(C2CCC(CO)(CO)CC2)nc2c(-c3ccc(-c4ccccc4)nc3)cnn2c1N [Compound 172, 1-(7-amino-5-(4,4-bis(hydroxymethyl)-cyclohexyl)-3-(6-phenylpyridin-3-yl)pyrazolo[1,5-a]pyrimidin-6-yl)ethanone]	1 to 100	1 to 100
CC(=O)c1c(N)n2ncc(-c3cnn(-c4cnn(C)c4)c3)c2nc1[C@H]1CC[C@@](O)(CO)CC1 [Compound 148, 1-(7-amino-5-((1R,4R)-4-hydroxy-4-(hydroxymethyl)cyclohexyl)-3-(1′-methyl-1′H-1,4′-bipyrazol-4-yl)pyrazolo[1,5-a]pyrimidin-6-yl)ethanone]	1 to 100	2000 to 5000
CC(=O)c1c(N)n2ncc(-c3ccc(-c4ccccc4)nc3)c2nc1[C@H]1CC[C@@](F)(C(=O)O)CC1 [Compound 17, (1R,4R)-4-(6-acetyl-7-amino-3-(6-phenylpyridin-3-yl)pyrazolo[1,5-a]pyrimidin-5-yl)-1-fluorocyclohexane-carboxylic acid]	1 to 100	100 to 1000
CC(=O)c1c(C2CCC(O)(CO)CC2)nc2c(-c3ccc(-c4cccnc4)nc3)cnn2c1N (centres unmarked) [Compound 143, 1-(3-(2,3′-bipyridin-5-yl)-7-amino-5-(4-hydroxy-4-(hydroxymethyl)-cyclohexyl)-pyrazolo-[1,5-a]pyrimidin-6-yl)ethanone]	1 to 100	1000 to 2000
COC[C@]1(C(=O)O)CC[C@@H](c2nc3c(-c4cnc5ccc(F)cc5c4)cnn3c(N)c2C(C)=O)CC1 [Compound 23, (1S,4S)-4-(6-acetyl-7-amino-3-(6-fluoroquinolin-3-yl)pyrazolo[1,5-a]pyrimidin-5-yl)-1-(methoxymethyl)-cyclohexane-carboxylic acid]	1 to 100	2000 to 5000
COCCO[C@]1(C(=O)O)CC[C@@H](c2nc3c(-c4ccc(-c5cscn5)nc4)cnn3c(N)c2C(C)=O)CC1 [Compound 62, (1R,4R)-4-(6-acetyl-7-amino-3-(6-(thiazol-4-yl)pyridin-3-yl)pyrazolo[1,5-a]pyrimidin-5-yl)-1-(2-methoxyethoxy) cyclohexanecarboxylic acid]	1 to 100	100 to 1000
Nc1c(Br)c(C2CCC(O)(CO)CC2)nc2c(-c3cnc4ccc(F)cc4c3)cnn12 (centres unmarked) [Compound 136, 4-(7-amino-6-bromo-3-(6-fluoroquinolin-3-yl)pyrazolo[1,5-a]pyrimidin-5-yl)-1-(hydroxymethyl)cyclohexanol]	1 to 100	100 to 1000
CS[C@]1(C(=O)O)CC[C@H](c2nc3c(-c4cnn(-c5ccccc5)c4)cnn3c(N)c2Br)CC1 [Compound 9, (1S,4S)-4-(7-amino-6-bromo-3-(1-phenyl-1H-pyrazol-4-yl)pyrazolo[1,5-a]pyrimidin-5-yl)-1-(methylthio)-cyclohexane-carboxylic acid]	1 to 100	100 to 1000
CC(=O)c1c(C2CCC(CO)(C(=O)O)CC2)nc2c(-c3cnn(-c4ccccc4)c3)cnn2c1N (centres unmarked) [Compound 132, 4-(6-acetyl-7-amino-3-(1-phenyl-1H-pyrazol-4-yl)pyrazolo[1,5-a]pyrimidin-5-yl)-1-(hydroxymethyl)cyclohexanecarboxylic acid]	1 to 100	100 to 1000
COCCOC[C@]1(CO)CC[C@H](c2nc3c(-c4ccc(-c5ccccc5)nc4)cnn3c(N)c2Br)CC1 [Compound 168, ((1S,4S)-4-(7-amino-6-bromo-3-(6-phenylpyridin-3-yl)pyrazolo[1,5-a]pyrimidin-5-yl)-1-((2-methoxyethoxy)-methyl)cyclohexyl)-methanol]	1 to 100	1000 to 2000
CC(=O)c1c(C2CCC(O)(CO)CC2)nc2c(-c3ccc(-c4cccc(C(=O)O)c4)nc3)cnn2c1N (centres unmarked) [Compound 151, 3-(5-(6-acetyl-7-amino-5-(4-hydroxy-4-(hydroxymethyl)-cyclohexyl)-pyrazolo-[1,5-a]pyrimidin-3-yl)pyridin-2-yl)benzoic acid]	1 to 100	
COCCO[C@]1(C(=O)O)CC[C@@H](c2nc3c(-c4cnc(-c5ccn(C)n5)nc4)cnn3c(N)c2S(C)(=O)=O)CC1 [Compound 49, (1R,4R)-4-(7-amino-3-(2-(1-methyl-1H-pyrazol-3-yl)pyrimidin-5-yl)-6-(methylsulfonyl)-pyrazolo[1,5-a]-pyrimidin-5-yl)-1-(2-mcthoxyethoxy)-cyclohexanecarboxylic acid]	1 to 100	
